From ChEMBL document CHEMBL1201862, “PubChem BioAssay data set” (2004)
The source made the active and inactive calls.

Experiments:
[1] = molecular target: T1, Sentrin-specific protease 6 (Homo sapiens, UniProt Q9GZR1); type: functional;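 also: Luminescence-based dose-response confirmatory assay of SENP6 inhibition, following up an ultra-high-throughput screen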
T1 sequence (Q9GZR1 whole entry): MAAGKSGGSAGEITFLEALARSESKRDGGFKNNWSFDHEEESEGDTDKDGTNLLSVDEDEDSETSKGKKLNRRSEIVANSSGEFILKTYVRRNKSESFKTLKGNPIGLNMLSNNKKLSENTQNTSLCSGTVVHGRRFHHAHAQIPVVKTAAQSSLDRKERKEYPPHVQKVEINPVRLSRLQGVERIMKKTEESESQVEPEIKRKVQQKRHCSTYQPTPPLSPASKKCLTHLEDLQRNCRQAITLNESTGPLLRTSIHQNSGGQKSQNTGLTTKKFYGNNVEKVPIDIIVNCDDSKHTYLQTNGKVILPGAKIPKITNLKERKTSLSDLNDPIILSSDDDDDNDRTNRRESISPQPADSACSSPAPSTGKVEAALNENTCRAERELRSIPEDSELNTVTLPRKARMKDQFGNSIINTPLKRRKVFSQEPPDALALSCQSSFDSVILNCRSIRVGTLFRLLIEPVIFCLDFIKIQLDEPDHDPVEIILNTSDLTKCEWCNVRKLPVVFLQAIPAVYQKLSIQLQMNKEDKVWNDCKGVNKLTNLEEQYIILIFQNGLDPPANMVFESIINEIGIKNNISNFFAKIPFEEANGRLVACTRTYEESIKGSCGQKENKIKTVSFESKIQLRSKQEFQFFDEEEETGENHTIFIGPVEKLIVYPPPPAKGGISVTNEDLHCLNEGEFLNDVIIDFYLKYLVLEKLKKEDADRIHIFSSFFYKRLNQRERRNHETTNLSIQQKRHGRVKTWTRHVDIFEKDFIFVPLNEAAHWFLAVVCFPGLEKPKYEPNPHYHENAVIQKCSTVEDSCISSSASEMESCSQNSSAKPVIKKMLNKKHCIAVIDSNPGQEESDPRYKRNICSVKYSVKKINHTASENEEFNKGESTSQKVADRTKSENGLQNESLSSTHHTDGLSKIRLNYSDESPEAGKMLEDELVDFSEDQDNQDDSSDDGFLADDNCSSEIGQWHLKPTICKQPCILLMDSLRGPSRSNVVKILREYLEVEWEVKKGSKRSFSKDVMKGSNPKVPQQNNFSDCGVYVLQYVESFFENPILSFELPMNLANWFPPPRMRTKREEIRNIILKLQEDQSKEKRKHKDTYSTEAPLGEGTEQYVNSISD

[2] = molecular target: Botulinum neurotoxin type F (Clostridium botulinum, UniProt P30996); test: High-throughput multiplex microsphere dose response for inhibitors of toxin protease, specifically Botulinum neurotoxin light chain F protease, compounds from Cherry Pick 02.; type: functional; conditions: read-out: EC50_MICROM
Chain of Botulinum neurotoxin type F (P30996 1-436 limits assumed): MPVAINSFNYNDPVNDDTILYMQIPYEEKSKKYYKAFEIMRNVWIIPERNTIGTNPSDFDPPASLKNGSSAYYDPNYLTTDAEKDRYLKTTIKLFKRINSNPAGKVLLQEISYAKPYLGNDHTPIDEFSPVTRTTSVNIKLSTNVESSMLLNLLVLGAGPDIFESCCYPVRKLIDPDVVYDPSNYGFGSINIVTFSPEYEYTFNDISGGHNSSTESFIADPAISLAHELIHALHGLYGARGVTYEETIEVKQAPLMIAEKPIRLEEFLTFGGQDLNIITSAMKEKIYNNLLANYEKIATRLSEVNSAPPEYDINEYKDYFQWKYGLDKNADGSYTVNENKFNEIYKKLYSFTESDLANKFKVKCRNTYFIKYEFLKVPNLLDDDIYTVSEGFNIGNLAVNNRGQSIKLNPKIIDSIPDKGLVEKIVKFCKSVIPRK

[3] = molecular target: T2, Sentrin-specific protease 7 (Homo sapiens, UniProt Q9BQF6); type: functional;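 also: Luminescence-based dose-response confirmation of ultra-high-throughput screening hits, measuring inhibition of SENP7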
T2 sequence (Q9BQF6 whole entry): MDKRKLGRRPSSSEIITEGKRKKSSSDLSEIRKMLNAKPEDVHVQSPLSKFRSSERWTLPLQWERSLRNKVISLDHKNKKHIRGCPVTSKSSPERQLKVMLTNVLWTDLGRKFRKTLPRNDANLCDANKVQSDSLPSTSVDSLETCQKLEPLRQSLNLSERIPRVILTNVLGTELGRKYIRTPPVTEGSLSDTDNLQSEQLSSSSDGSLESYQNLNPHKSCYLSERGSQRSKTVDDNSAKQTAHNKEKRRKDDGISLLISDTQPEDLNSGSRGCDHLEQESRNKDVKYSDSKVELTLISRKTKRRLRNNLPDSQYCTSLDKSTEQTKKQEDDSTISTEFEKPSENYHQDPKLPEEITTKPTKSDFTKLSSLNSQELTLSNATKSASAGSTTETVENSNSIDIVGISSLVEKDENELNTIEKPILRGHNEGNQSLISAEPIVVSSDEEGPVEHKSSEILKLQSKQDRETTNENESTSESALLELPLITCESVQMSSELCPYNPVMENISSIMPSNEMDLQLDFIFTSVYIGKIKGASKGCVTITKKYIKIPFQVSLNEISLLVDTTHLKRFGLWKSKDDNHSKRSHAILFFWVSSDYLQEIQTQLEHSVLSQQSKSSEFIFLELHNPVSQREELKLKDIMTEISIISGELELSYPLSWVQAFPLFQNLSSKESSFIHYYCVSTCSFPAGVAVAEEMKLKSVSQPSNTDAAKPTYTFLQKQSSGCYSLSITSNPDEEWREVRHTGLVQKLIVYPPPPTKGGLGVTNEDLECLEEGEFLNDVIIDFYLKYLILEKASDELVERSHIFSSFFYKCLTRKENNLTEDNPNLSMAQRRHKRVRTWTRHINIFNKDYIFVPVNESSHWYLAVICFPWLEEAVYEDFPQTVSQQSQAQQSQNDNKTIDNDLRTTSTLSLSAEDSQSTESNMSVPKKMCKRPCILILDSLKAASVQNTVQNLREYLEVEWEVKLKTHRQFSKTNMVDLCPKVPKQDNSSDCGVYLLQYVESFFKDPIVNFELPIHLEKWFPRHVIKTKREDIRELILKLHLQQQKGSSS

[4] = molecular target: T3, Sentrin-specific protease 8 (Homo sapiens, UniProt Q96LD8); type: functional
T3 sequence (Q96LD8 whole entry): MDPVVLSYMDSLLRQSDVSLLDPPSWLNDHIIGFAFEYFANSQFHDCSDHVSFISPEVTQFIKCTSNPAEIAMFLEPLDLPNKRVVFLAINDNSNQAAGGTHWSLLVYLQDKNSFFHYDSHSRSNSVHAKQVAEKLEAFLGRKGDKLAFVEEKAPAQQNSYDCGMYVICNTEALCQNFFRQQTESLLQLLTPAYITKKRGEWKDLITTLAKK

Caspase-3 [5] = molecular target: T4, Caspase-3 (Homo sapiens, UniProt P42574); type: functional
T4 sequence (P42574 whole entry): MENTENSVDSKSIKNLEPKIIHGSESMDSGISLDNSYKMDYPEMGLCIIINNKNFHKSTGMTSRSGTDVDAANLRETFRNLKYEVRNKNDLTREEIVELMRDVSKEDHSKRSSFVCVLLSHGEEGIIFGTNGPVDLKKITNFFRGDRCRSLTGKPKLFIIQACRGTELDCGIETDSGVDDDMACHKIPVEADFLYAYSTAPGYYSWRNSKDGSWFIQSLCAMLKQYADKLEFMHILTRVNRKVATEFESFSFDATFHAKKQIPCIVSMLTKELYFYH

Beta-lactamase [6] = molecular target: Beta-lactamase (Salmonella choleraesuis (strain SC-B67), UniProt Q5J463); test: Epi-absorbance-based counterscreen for selective VIM-2 inhibitors: dose response biochemical high throughput screening assay to identify inhibitors of TEM-1 serine-beta-lactamase.
Chain of Beta-lactamase (Salmonella choleraesuis (strain SC-B67), UniProt Q5J463) (Q5J463 whole entry): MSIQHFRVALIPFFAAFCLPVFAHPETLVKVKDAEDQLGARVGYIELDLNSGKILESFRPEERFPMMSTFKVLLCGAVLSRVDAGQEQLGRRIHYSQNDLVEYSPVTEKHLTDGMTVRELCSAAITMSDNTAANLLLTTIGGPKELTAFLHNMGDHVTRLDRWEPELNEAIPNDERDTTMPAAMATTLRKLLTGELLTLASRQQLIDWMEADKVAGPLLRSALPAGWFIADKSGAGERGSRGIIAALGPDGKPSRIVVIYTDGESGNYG

Beta-lactamase [7] = molecular target: T5, Beta-lactamase (Pseudomonas aeruginosa, UniProt Q79MP6); test: IMP-1 metallo-beta-lactamase inhibitors, dose response, selectivity assay for VIM-2 inhibitor project, biochemical, epi-absorbance (AID 1920)
T5 sequence (Q79MP6 whole entry): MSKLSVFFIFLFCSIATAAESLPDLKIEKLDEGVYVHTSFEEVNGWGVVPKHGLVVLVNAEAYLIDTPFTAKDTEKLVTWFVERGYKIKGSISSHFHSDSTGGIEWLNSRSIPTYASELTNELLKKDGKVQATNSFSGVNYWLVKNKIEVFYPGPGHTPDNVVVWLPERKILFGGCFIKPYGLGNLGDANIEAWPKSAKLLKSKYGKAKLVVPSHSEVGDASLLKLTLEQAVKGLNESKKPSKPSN

Beta-lactamase [8] = molecular target: T5, Beta-lactamase; test: […] counterscreen for selective VIM-2 inhibitors: dose response biochemical high throughput screening assay to identify inhibitors of IMP-1 metallo-beta-lactamase.
[9] = molecular target: Dual specificity tyrosine-phosphorylation-regulated kinase 1A (Rattus norvegicus, UniProt Q63470); type: biochemical, Homo sapiens
Caspase-7 = Caspase-7 (Homo sapiens, UniProt P55210); test: human caspase-7 inhibitors, dose response, selectivity assay for caspase-6 inhibitor project, biochemical, DEVD-R110 fluorescence, cherry-pick (AID 743295)
Chain of Caspase-7 (P55210 24-198 limits assumed): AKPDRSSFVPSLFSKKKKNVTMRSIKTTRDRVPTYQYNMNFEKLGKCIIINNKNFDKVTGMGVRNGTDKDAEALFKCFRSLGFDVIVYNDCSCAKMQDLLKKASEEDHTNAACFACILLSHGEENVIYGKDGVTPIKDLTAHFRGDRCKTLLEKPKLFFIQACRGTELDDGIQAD
Chain of Caspase-7 (P55210 207-303 limits assumed): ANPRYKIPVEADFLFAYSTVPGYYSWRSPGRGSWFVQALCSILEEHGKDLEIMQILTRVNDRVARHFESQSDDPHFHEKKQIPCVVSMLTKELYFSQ

Caspase-9 = molecular target: T6, Caspase-9 (Homo sapiens, UniProt P55211); test: caspase-9 enzyme inhibition, dose response, selectivity assay for caspase-6 inhibitor project, biochemical, fluorescence, plate reader, cherry-picked samples (AID 743293)
T6 sequence (P55211 whole entry): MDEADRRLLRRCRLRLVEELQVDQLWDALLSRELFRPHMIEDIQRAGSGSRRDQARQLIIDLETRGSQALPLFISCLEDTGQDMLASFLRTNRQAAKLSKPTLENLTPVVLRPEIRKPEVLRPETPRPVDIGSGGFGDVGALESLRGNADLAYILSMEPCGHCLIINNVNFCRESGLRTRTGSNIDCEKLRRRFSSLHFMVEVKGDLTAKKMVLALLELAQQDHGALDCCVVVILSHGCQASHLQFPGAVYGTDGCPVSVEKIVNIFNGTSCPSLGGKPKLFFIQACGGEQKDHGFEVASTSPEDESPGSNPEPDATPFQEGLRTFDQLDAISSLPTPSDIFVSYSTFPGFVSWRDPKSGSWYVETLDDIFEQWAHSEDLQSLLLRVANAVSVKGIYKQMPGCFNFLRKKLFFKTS

Caspase-6 = molecular target: T7, Caspase-6 (Homo sapiens, UniProt P55212); test: human caspase-6 inhibitors, dose response, biochemical, VEID-R110 fluorescence, cherry-pick (AID 720632)
T7 sequence (P55212 whole entry): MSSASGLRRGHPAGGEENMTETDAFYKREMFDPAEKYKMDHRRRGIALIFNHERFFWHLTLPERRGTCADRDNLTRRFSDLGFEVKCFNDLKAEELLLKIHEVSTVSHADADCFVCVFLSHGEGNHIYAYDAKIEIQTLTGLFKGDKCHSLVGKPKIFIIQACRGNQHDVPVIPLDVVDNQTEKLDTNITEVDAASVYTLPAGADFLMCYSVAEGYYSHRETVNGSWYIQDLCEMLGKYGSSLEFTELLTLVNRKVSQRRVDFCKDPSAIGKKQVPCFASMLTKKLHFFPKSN

Caspase-8 = Caspase-8 (Homo sapiens, UniProt Q14790); test: caspase-8 inhibition counter-screen, dose response, selectivity assay for caspase-6 inhibitor project, biochemical, Z-IETD-R110 fluorescence, cherry-picked samples (AID 743294)
Chain of Caspase-8 (Q14790 217-374 limits assumed): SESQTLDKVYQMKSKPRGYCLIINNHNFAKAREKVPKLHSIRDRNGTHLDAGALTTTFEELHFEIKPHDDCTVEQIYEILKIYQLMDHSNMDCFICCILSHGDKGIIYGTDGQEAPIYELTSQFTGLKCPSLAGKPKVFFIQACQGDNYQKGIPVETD
Chain of Caspase-8 (Q14790 385-479 limits assumed): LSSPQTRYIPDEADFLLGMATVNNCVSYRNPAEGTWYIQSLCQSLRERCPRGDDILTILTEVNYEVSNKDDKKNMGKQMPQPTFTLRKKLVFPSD

[10] = molecular target: T3, Sentrin-specific protease 8; type: functional; remark: listed apart in the source
Caspase-3 [11] = molecular target: T4, Caspase-3; test: Dose-response confirmation of uHTS inhibitor hits of Sentrin-Specific Protease 8 in a Caspase-3 Fluorescence assay.; type: functional
Caspase-3 [12] = molecular target: T4, Caspase-3; test: caspase-3 enzyme inhibitors, selectivity check, dose response, selectivity assay for caspase-6 allosteric inhibitor project, biochemical, fluorescence, cherry-picked samples (AID 743291)
[13] = molecular target: T3, Sentrin-specific protease 8; type: functional; remark: listed apart in the source
Nonstructural protein 1 = Nonstructural protein 1 (Influenza A virus, UniProt Q194T2); type: functional, Influenza A virus (A/California/07/2009(H1N1))
Chain of Nonstructural protein 1 (Q194T2 whole entry): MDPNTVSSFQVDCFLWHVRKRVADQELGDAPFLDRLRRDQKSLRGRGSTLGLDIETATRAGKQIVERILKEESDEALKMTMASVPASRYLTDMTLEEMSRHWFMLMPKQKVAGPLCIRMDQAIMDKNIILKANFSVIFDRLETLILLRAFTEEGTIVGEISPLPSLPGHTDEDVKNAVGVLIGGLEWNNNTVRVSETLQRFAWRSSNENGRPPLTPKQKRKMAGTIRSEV

Albumin = Albumin (Bos taurus, UniProt P02769); test: Counterscreen for inhibitors of T-cell receptor (TCR)-CD3 interaction: Fluorescence-based biochemical high throughput dose response assay to identify inhibitors of T-cell receptor (TCR)-CD3 interaction using a TAMRA-labeled BSA probe.; type: functional
Chain of Albumin (P02769 whole entry): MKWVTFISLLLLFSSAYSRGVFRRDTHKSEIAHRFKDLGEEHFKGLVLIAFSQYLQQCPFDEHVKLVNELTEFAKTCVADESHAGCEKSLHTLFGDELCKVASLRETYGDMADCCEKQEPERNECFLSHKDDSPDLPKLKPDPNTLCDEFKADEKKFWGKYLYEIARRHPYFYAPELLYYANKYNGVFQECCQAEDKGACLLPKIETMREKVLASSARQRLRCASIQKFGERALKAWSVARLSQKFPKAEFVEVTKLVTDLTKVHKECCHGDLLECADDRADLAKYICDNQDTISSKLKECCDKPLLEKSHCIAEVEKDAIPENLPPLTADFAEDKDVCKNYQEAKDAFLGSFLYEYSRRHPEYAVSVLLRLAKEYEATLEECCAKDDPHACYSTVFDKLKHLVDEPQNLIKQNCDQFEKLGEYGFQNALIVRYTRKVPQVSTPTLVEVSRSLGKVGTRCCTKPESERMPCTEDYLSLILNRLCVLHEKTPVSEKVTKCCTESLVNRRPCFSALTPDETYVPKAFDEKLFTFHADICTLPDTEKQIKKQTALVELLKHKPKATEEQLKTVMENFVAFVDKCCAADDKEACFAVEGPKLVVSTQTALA

[14] = T. cruzi growth inhibition in host cells, dose response, cell-based, plate reader, dry powder, set 2 (AID 652275); type: functional
[15] = LMP1-driven NF-kB reporter inhibition, dose response, cell-based, luciferase reporter, luminescence, dry powder, set 2 (AID 624376); type: functional
[16] = cytotoxicity in L-6 rat myocytes, dose response, cytotoxicity control, cell-based, plate reader, cherry-pick (AID 651896); type: functional
[17] = NIH/3T3 fibroblast cytotoxicity, dose response, cytotoxicity control for T. cruzi growth inhibitor project, cell-based, cherry-pick samples, set 2 (AID 651817); type: functional; conditions: NIH3T3
[18] = T. cruzi intracellular amastigote growth inhibition, dose response, imaging, CA-I/72 strain, bovine embryo skeletal muscle, dry powder (AID 651885); type: functional, cell-based
[19] = T. b. rhodesiense proliferation inhibition, dose response, STIB900 strain, plate reader, cherry pick (AID 651893); type: functional, cell-based; conditions: Trypanosoma brucei
[20] = Inhibition of T. cruzi Tulahuen strain amastigotes in L-6 muscle cells Measured in Cell-Based and Microorganism Combination System Using Plate Reader - 2138-03_Inhibitor_Dose_CherryPick_Activity.; type: functional; conditions: Rattus norvegicus, L6
[21] = L. donovani amastigote growth inhibition, dose response, axenic amastigotes, plate reader, cherry pick (AID 651891); type: functional, cell-based; conditions: Leishmania donovani
[22] = Inhibition of Plasmodium falciparum NF54 Measured in Cell-Based System Using Plate Reader - 2138-11_Inhibitor_Dose_CherryPick_Activity.; type: functional
[23] = intracellular Trypanosoma cruzi inhibitors in host cells – cell-based, plate reader, cherry-pick samples, set 3, dose response (AID 651818); type: functional;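 also: compounds incubated with infected cells for about four days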

Structure (SMILES): CCc1cccc2c(C(=O)COC(=O)c3ccccc3)c[nH]c12
- IC50 [1]: > 100 µM (inactive)
- EC50 [2]: > 20 µM (inactive)
- IC50 [3]: 4.08 µM (active)
- IC50 [4]: > 100 µM (inactive)
- IC50 (Caspase-3 [5]): 49.9 µM (active)

Structure (SMILES): O=C(O)c1[nH]c2ccc(Br)cc2c1CCN1C(=O)c2cccc([N+](=O)[O-])c2C1=O
- IC50 (Beta-lactamase [6]): > 59.6 µM (inactive)
- IC50 (Beta-lactamase [7]): > 59.6 µM (inactive)
- IC50 (Beta-lactamase [8]): > 59.6 µM (inactive)
- AC50 [9]: 23.1 µM (active)

Structure (SMILES): CC[C@H](CO)Oc1cc(NCc2cccc(N)c2)c2ncn(C(C)C)c2c1
- AC50 (Caspase-7): 4.66 µM (active)
- AC50 (Caspase-9): 46.5 µM (active)
- AC50 (Caspase-6): 1.58 µM (active)
- AC50 (Caspase-8): 31.8 µM (active)
- IC50 [10]: 1.87 µM (active)
- IC50 (Caspase-3 [11]): 8.35 µM (active)
- AC50 (Caspase-3 [12]): 3.87 µM (active)
- IC50 [13]: 1.65 µM (active)

Structure (SMILES): O=C(NC(=S)NNC(=O)c1ccccc1O)c1cccnc1
- IC50 (Nonstructural protein 1): 7.11 µM (active)
- IC50 (Albumin): > 94.1 µM (inactive)

Structure (SMILES): C[C@H]1CN([C@@H](C)CO)C(=O)c2cccc(NC(=O)c3ccncc3)c2O[C@@H]1CN(C)Cc1ccccc1Cl
- AC50 [14]: 0.165 µM (active)

Structure (SMILES): C[C@@H](NC(=O)C[C@H]1C=C[C@@H](NC(=O)Cc2ccccn2)[C@H](CO)O1)c1ccccc1
- AbsAC35 [15]: 52.1 µM

Structure (SMILES): C[C@@H]1CN([C@@H](C)CO)C(=O)c2cccc(NC(=O)c3ccncc3)c2O[C@H]1CN(C)Cc1ccc(-c2ccccc2)cc1
- IC50 [16]: 13.5 µM (active)
- AC50 [17]: 21.9 µM (active)
- IC50 [18]: 0.146 µM (active)
- IC50 [19]: 0.729 µM (active)
- IC50 [20]: 1.2 µM (active)
- IC50 [21]: 13.3 µM (inactive)
- IC50 [22]: 1.2 µM (active)
- AC50 [23]: 0.08 µM (active)
